Measurements reported in patent publication US9637488B2, “Heterocyclic compounds as inhibitors of class I PI3KS” (priority 2015, dated 2017).

How the values were obtained:
Assay type in all cases: biochemical
[1] = biological target: PI3Kβ (p110β/p85α) (Homo sapiens (Human), UniProt P42338); assay: cell-free PI3K HTRF assay, PI3Kβ; settings: ratio of IC50 against PI3Kβ related to PI3Kδ; 10-dose, 3-fold serial dilution starting at 10 μM
Method: (§1) Exemplary compounds of the invention were tested for inhibitory activity and potency against class I PI3Ks (p110α/p85α, p110β/p85α, p110δ/p85α and p110γ) using a cell-free based PI3K HTRF assay. This assay was used to detect the formation of the product 3,4,5-inositol triphosphate molecule (PIP3) by displacement of biotin-PIP3 from an energy transfer complex consisting of Europium labeled anti-GST monoclonal antibody, a GST-tagged pleckstrin homology (PH) domain, biotinylated PIP3 and Streptavidin-Allophycocyanin (APC). Excitation of Europium in the complex results in an energy transfer to the APC and a fluorescent emission at 665 nm. The PIP3 product formed by human PI 3-Kinase activity displaces biotin-PIP3 from the complex resulting in a loss of energy transfer and thus a decrease in signal.
(§2) Human class I PI3K isoforms were co-expressed in a Baculovirus infected cell expression system. The PI3K isoforms were assayed in the presence of HEPES (50 mM, pH 7.0), NaN3 (0.02%), BSA (0.01%), orthovanadate (0.1 mM), and DMSO (1%). The exemplary compounds dissolved in DMSO were delivered into the kinase reaction mixture by Acoustic technology (Echo550; nanolitter range), and were pre-incubated for 10 min at room temperature before adding ATP (10 μM) to initiate the reaction. After 30 min at 30° C., the reactions were quenched with a stop solution, incubated overnight with a detection mixture before measuring HTRF (Ex: 320 nm; Em: 615/665 nm). The emission ratio is converted into μM PIP3 production based on PIP3 standard curves, and the nonlinear regression to obtain the standard curve and IC50 values are performed using Graphpad Prism software.
(§3) The assays were performed at Reaction Biology Corporation, One Great Valley Parkway, Suite 2, Malvern, Pa. 19355, USA.
(§4) Exemplary compounds of the invention selected were further tested their inhibitory activity or potency against PI3Kα, PI3Kβ, and PI3Kγ in 10-dose IC50 mode with 3-fold serial dilution starting at 10 μM. […] Table 5 below illustrates the selectivity of the exemplary compounds using the ratios of the IC50 values of the compounds against PI3Kα, PI3Kβ, and PI3Kγ related to PI3Kδ. […] Such unexpected selectivity against PI3Kδ and/or PI3Kγ is attributed to the unusual overall shape of the molecules of formula (I) and (II), and the optimal selection of R1, R2, R3, R4, X, and Y defined in formula (I) and (II) in order to bind favorably in the ATP-binding pocket of PI3Kδ and/or PI3Kγ versus other class I isozymes.

[2] = biological target: PI3Kδ (p110δ/p85α) (Homo sapiens (Human), UniProt O00329); assay: cell-free PI3K HTRF assay, PI3Kδ; settings: for IC50: 10-dose IC50 mode, 3-fold serial dilution starting at 1 μM, ATP 10 μM, read-out: IC50 value for the inhibition of PI3Kδ; for potency or inhibition against PI3Kδ (in words): qualitative statement
[3] = biological target: PI3Kγ (p110γ) (Homo sapiens (Human), UniProt P48736); assay: cell-free PI3K HTRF assay, PI3Kγ; settings: ratio of IC50 against PI3Kγ related to PI3Kδ; 10-dose, 3-fold serial dilution starting at 10 μM
Method: as §1, §2, §3, §4

[4] = biological target: PI3Kα (p110α/p85α) (Homo sapiens (Human), UniProt P42336); assay: cell-free PI3K HTRF assay, PI3Kα; settings: ratio of IC50 against PI3Kα related to PI3Kδ; 10-dose, 3-fold serial dilution starting at 10 μM
Method: as §1, §2, §3, §4

Chain of PI3Kγ (p110γ) (P48736 whole entry): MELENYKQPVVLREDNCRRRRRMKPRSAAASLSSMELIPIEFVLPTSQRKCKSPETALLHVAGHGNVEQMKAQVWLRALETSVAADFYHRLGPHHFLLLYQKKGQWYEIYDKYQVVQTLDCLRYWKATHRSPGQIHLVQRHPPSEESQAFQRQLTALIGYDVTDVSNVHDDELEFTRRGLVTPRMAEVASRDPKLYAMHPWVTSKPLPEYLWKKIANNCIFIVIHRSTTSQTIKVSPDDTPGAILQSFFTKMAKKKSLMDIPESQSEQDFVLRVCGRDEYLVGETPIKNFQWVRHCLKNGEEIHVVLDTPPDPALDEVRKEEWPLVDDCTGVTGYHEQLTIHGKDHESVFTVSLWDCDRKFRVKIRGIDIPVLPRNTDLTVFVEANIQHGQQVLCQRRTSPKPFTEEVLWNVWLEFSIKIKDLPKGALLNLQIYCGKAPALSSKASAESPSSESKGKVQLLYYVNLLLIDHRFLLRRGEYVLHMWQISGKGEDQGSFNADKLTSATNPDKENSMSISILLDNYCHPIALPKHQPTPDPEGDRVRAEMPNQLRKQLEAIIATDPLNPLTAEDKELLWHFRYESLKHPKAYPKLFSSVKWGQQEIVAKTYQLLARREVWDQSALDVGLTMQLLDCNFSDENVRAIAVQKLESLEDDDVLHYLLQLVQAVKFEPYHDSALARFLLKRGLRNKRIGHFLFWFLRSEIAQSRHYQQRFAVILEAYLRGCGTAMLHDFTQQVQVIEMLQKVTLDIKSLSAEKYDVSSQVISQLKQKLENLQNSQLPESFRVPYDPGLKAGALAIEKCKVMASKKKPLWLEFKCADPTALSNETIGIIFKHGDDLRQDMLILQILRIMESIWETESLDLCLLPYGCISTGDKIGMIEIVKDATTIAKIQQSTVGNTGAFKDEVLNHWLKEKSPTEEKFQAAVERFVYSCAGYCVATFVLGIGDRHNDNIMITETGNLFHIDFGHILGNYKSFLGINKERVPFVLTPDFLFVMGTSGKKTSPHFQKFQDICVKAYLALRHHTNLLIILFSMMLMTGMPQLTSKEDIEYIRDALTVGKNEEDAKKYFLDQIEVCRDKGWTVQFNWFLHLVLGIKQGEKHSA
Chain of PI3Kα (p110α/p85α) (P42336 whole entry): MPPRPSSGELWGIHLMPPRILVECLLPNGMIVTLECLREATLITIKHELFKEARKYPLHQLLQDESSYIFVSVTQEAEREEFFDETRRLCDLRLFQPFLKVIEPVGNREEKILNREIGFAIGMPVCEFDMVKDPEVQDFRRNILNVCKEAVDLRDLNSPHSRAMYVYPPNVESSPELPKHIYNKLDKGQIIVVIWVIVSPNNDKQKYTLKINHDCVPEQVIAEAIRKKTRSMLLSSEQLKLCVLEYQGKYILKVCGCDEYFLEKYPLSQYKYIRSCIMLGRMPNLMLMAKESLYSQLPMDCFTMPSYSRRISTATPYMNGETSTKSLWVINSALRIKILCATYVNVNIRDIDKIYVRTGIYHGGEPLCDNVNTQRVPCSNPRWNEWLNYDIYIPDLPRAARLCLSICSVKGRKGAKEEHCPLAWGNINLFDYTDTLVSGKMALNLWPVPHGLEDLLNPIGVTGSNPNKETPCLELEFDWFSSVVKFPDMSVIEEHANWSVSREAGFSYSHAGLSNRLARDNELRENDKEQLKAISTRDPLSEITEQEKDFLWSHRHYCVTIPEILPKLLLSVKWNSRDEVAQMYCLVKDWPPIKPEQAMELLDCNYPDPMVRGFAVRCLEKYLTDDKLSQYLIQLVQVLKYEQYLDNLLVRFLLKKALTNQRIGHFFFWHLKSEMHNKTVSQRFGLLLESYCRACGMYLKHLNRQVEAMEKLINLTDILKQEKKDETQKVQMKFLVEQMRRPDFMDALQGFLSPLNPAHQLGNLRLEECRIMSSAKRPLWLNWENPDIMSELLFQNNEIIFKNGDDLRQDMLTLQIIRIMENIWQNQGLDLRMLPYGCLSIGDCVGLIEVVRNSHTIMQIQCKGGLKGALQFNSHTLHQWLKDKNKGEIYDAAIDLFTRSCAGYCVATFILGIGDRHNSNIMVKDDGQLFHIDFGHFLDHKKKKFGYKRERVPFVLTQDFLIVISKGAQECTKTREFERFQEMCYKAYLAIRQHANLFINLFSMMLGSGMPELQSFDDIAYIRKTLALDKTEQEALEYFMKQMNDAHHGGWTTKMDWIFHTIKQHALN
Chain of PI3Kα (p110α/p85α) (P27986 whole entry partner): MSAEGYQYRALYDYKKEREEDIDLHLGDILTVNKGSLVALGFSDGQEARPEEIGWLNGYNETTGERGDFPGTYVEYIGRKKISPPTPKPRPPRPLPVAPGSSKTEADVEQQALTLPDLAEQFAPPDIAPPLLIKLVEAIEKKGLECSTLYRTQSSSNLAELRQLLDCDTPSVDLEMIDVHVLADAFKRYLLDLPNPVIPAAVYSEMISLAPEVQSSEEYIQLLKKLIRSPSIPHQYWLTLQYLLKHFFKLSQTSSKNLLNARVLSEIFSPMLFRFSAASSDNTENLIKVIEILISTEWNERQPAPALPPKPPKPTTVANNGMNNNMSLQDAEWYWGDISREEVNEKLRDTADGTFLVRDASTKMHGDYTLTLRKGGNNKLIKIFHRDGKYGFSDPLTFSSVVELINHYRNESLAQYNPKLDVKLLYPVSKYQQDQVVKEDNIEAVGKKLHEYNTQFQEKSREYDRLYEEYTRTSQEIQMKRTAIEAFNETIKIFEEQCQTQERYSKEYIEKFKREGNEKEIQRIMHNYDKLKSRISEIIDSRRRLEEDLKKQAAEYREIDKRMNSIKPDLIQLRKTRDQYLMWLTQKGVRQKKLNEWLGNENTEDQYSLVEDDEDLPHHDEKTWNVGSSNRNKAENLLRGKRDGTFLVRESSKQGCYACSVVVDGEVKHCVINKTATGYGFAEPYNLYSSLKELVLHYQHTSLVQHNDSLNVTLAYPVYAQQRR
Chain of PI3Kβ (p110β/p85α) (P42338 whole entry): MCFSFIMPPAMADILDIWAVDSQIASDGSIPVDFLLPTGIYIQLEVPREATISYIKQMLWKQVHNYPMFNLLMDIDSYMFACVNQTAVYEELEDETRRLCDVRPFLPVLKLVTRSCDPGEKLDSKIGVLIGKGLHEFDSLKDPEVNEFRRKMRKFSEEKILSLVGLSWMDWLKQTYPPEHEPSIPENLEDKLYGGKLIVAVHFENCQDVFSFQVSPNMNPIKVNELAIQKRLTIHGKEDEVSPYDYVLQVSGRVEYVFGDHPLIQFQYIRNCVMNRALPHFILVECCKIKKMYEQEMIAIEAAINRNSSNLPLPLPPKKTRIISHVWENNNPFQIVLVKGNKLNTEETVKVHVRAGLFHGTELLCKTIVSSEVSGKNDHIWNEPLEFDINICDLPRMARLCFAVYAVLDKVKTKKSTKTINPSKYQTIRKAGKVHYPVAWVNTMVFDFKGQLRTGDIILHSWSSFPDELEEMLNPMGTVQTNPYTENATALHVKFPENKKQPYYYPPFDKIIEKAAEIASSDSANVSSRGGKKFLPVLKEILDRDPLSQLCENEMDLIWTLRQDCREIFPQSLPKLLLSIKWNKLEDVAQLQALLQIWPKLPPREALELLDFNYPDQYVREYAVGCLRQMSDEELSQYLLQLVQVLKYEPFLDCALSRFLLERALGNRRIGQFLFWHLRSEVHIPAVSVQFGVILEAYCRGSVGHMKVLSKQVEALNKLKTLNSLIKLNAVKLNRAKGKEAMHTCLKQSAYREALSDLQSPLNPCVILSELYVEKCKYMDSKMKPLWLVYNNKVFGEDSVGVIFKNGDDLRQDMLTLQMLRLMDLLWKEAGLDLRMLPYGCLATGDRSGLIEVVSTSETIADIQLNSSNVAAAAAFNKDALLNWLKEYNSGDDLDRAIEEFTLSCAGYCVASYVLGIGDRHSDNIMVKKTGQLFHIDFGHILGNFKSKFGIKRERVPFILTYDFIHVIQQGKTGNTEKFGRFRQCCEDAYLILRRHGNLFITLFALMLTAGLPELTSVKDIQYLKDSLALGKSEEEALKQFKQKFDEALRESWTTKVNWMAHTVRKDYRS
Chain of PI3Kβ (p110β/p85α) (P27986 whole entry partner): as the sequence (P27986 whole entry partner) above
Chain of PI3Kδ (p110δ/p85α) (O00329 whole entry): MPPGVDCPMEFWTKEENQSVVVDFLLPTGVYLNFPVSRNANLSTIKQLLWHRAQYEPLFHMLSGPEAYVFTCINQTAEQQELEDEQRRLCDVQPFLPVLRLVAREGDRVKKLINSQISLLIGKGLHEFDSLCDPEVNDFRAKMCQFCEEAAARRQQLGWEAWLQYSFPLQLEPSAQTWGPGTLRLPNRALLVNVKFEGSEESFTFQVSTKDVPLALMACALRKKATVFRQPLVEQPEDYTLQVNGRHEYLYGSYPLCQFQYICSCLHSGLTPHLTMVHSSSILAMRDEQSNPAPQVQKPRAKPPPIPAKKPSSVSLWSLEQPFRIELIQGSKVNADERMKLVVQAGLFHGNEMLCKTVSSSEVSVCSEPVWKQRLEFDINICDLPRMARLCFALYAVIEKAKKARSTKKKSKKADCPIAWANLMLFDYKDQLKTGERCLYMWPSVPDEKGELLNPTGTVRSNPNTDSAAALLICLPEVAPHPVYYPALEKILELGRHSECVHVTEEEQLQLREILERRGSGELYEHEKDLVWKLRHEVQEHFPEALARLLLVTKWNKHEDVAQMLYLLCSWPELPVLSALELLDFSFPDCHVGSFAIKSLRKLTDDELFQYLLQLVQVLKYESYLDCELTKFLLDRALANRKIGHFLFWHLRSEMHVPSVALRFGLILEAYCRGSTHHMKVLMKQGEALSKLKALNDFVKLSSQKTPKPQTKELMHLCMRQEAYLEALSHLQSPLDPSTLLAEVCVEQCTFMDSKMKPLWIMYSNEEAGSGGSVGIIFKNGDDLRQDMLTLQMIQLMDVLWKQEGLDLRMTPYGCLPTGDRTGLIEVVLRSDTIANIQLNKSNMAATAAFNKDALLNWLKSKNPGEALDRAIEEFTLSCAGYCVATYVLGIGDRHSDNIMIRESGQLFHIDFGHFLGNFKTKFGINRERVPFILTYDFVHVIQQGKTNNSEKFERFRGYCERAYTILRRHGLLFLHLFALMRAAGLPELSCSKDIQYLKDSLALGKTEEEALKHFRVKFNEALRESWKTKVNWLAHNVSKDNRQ
Chain of PI3Kδ (p110δ/p85α) (P27986 whole entry partner): as the sequence (P27986 whole entry partner) above

Compound | Ratio (β/δ) [1] | IC50 [2] [nM] | Ratio (γ/δ) [3] | Ratio (α/δ) [4] | potency or inhibition against PI3Kδ (in words) [2]
Fc1ccc2cc(C3CCCN3c3ncnc4[nH]cnc34)c(-c3cccnc3)nc2c1 (centres unmarked) [Compound 1, 3-(1-(9H-purin-6-yl)pyrrolidin-2-yl)-7-fluoro-2-(pyridin-3-yl)quinoline] | 267 | 27 | 39 |  | 
Fc1ccc2cc(C3CCCN3c3ncnc4[nH]cnc34)c(-c3ccccn3)nc2c1 (centres unmarked) [Compound 10, 3-(1-(9H-purin-6-yl)pyrrolidin-2-yl)-7-fluoro-2-(pyridin-2-yl)quinoline] | 519 | 13 | 53 | >781 | 
Cn1c(=O)n(C)c2c(N3CCCC3c3cc4ccc(F)cc4nc3-c3ccccn3)ncnc21 (centres unmarked) [Compound 13] |  | > 1000 |  |  | week potency or inhibition
Fc1ccc2cc(C3CCCN3c3ncnc4[nH]cnc34)c(-c3ccncc3)nc2c1 (centres unmarked) [Compound 14] | 4.2 | 521 | 3.3 | >19 | 
N#Cc1c(N)ncnc1N1CCCC1c1cc2ccc(F)cc2nc1-c1ccncc1 (centres unmarked) [Compound 15] | 11 | 62 | 2.2 | 138 | 
N#Cc1c(N)ncnc1N1CCCC1c1cc2ccc(F)cc2nc1N1CCCCC1 (centres unmarked) [Compound 18] | 14712 | 0.1 | 955 | >100000 | 
Fc1ccc2cc(C3CCCN3c3ncnc4[nH]cnc34)c(-c3ccccc3)nc2c1 (centres unmarked) [Compound 21] | 3550 | 0.7 | 67.5 | 12818 | 
Fc1cccc(-c2nc3cc(F)ccc3cc2C2CCCN2c2ncnc3[nH]cnc23)c1 (centres unmarked) [Compound 22] | 8946 | 0.5 | 139 | 16451 | 
COc1cccc(-c2nc3cc(F)ccc3cc2C2CCCN2c2ncnc3[nH]cnc23)c1 (centres unmarked) [Compound 23] | 396 | 11 | 50 | >926 | 
Fc1ccc2cc(C3CCCN3c3ncnc4[nH]cnc34)c(-c3ccccc3F)nc2c1 (centres unmarked) [Compound 24] | 393 | 16 | 22 | >613 | 
COc1ccccc1-c1nc2cc(F)ccc2cc1C1CCCN1c1ncnc2[nH]cnc12 (centres unmarked) [Compound 25] | 297 | 14 | 5.1 | >694 | 
Fc1ccc2cc(C3CCCN3c3ncnc4[nH]cnc34)c(-c3cccc(OC(F)(F)F)c3)nc2c1 (centres unmarked) [Compound 26] | 39.7 | 207 | 12 | 483 | 
N#Cc1c(N)nc(N)nc1N1CCCC1c1cc2ccc(F)cc2nc1-c1ccccc1 (centres unmarked) [Compound 27] | >2185 | < 0.05 | >2.3 | >12756 | 
Nc1cc(N2CCCC2c2cc3ccc(F)cc3nc2-c2ccccc2)nc(N)n1 (centres unmarked) [Compound 28] |  | > 1000 |  |  | 
N#Cc1c(N)ncnc1N1CCCC1c1cc2ccc(F)cc2nc1-c1ccccc1 (centres unmarked) [Compound 29] | 478 | 1.7 | 52.4 | 2170 | 
COc1cccc(-c2nc3cc(F)ccc3cc2C2CCCN2c2ncnc(N)c2C#N)c1 (centres unmarked) [Compound 30] | 631 | 4.8 | 85 | 962 | 
Fc1ccc2cc(C3CC=CCN3c3ncnc4[nH]cnc34)c(-c3ccccc3)nc2c1 (centres unmarked) [Compound 31, 3-(1-(9H-purin-6-yl)-1,2,3,6-tetrahydropyridin-2-yl)-7-fluoro-2-phenylquinoline] | >97 | 103 | 16 |  | 
Fc1ccc2cc(C3CCCCN3c3ncnc4[nH]cnc34)c(-c3ccccc3)nc2c1 (centres unmarked) [Compound 41] |  | 240 |  |  | 
N#Cc1c(N)ncnc1N1CC=CCC1c1cc2ccc(F)cc2nc1-c1ccccc1 (centres unmarked) [Compound 42] | >181 | 55 | 103 |  | 
N#Cc1c(N)ncnc1N1CC=CCC1c1cc2ccc(F)cc2nc1N1CCOCC1 (centres unmarked) [Compound 44] | 297 | 6.2 | 152 |  | 
Fc1ccc2cc(C3CCCCCN3c3ncnc4[nH]cnc34)c(-c3ccccc3)nc2c1 (centres unmarked) [Compound 45, 3-(1-(9H-purin-6-yl)azepan-2-yl)-7-fluoro-2-phenylquinoline] |  | > 1000 |  |  | week potency or inhibition
Cc1cccc2cc([C@@H]3CCCN3c3nc(N)nc(N)c3C#N)c(-c3ccccc3)nc12 [Compound 54, (S)-2,4-diamino-6-(2-(8-methyl-2-phenylquinolin-3-yl)pyrrolidin-1-yl)pyrimidine-5-carbonitrile] | >1120 | < 0.05 | ~10 | >1801 | 
Fc1ccc2cc([C@@H]3CCCN3c3ncnc4[nH]cnc34)c(-c3ccccn3)nc2c1 [Compound 62] | 520 | 12.8 | 53 | >781 | 
N#Cc1c(N)ncnc1N1CCC[C@H]1c1cc2cccc(Cl)c2nc1-c1ccccc1 [Compound 67] | 1368 | < 0.05 | >5.6 | >8583 | 

Other lines, results leading:

Ratio (β/δ) [1] | IC50 [2] [nM] | Ratio (γ/δ) [3] | Ratio (α/δ) [4] | potency or inhibition against PI3Kδ (in words) [2] | Compound
344 | 1.6 | 111 | 1000 |  | N#Cc1c(N)ncnc1N1CCCC1c1cc2ccc(F)cc2nc1N1CCOCC1 (centres unmarked) [Compound 7, 4-amino-6-(2-(7-fluoro-2-morpholinoquinolin-3-yl)pyrrolidin-1-yl)pyrimidine-5-carbonitrile]
1153 | 2.2 | 145 | 3360 |  | Fc1ccc2cc(C3CCCN3c3ncnc4[nH]cnc34)c(N3CCCCC3)nc2c1 (centres unmarked) [Compound 16]
1714 | 0.9 | 1.1 | 5958 |  | Nc1nc(N2CCCC2c2cc3ccc(F)cc3nc2N2CCCCC2)c2nc[nH]c2n1 (centres unmarked) [Compound 17]
190 | 19 | 18.8 | 528 |  | Fc1ccc2cc(C3CCCN3c3ncnc4[nH]cnc34)c(N3CCOCC3)nc2c1 (centres unmarked) [Compound 20]
537 | 7.1 | 106 | 529 |  | Fc1ccc2cc(C3CCCCN3c3ncnc4[nH]cnc34)c(N3CCOCC3)nc2c1 (centres unmarked) [Compound 38, 4-(3-(1-(9H-purin-6-yl)piperidin-2-yl)-7-fluoroquinolin-2-yl)morpholine]
169 | 6.8 | 39 | 689 |  | Fc1ccc2cc(C3CC=CCN3c3ncnc4[nH]cnc34)c(N3CCOCC3)nc2c1 (centres unmarked) [Compound 43]
264 | 18 | 5.6 | 556 |  | Cc1cccc2cc([C@@H]3CCCN3c3ncnc4[nH]cnc34)c(-c3ccccc3)nc12 [Compound 63]
317 | 1.6 | 48 | 748 |  | Cc1cccc2cc([C@@H]3CCCN3c3ncnc4[nH]cnc34)c(N3CCOCC3)nc12 [Compound 64]
>789 | < 0.05 | >188 | >1738 |  | Cc1cccc2cc([C@@H]3CCCN3c3ncnc(N)c3C#N)c(N3CCOCC3)nc12 [Compound 65]
250 | 1.8 | 24 | 493 |  | Clc1cccc2cc([C@@H]3CCCN3c3ncnc4[nH]cnc34)c(N3CCOCC3)nc12 [Compound 66]
